Tested on: 926638-142-R-J1-PDC complex spheroid viability
Experiment: Anticancer human tumor 926638-142-R-J1-PDC patient-derived endometrial carcinoma cell line growth inhibition [POLQ]
Conditions: for IC50: curve of first compound; for viability, T/C: stronger effect = lower value; active = viability on the fitted dose curve at most 10% of control; inactive = the rest
Method: Multicellular complex tumor spheroid response to Polymerase (POL) inhibitors (novobiocin, ART-558, RP6685) in combination with a variety of drugs and investigational agents in selected tumor cell lines
The POL inhibitors (novobiocin, ART-558, and RP6685) were evaluated both individually and in combination with standard of care and investigational anticancer small molecules within a complex spheroid model of solid tumors. . Complex spheroids include a stromal component modeled by human endothelial cells (HUVEC) and fibroblasts modeled by human mesenchymal stem cells (MSCs). The concentration ranges selected for each drug and investigational agent were based upon clinically achievable concentrations if the clinical Cmax of the agent was known.
Compounds. The drugs and investigational agents: novobiocin (NSC847541), ART-558 (NSC835418), RP-6685 (NSC848927), peposertib (NSC802822), ceralasertib (NSC780249), elimusertib (NSC800525), camonsertib (NSC841442), AZD-1390 (NSC803789), olaparib (NSC753686), talazoparib (NSC767125), rucaparib (NSC756644), sotorasib (NSC818433), MRTX-1133 (NSC836407), SN-38 (NSC673596), topotecan (NSC609699), epotoside (NSC141540), doxorubicin (NSC123127), gemcitabine (NSC613327), 5-fluorouracil (NSC19893), paclitaxel (NSC125973), vemurafenib (NSC761431), MSA-2 (NSC828583), SN-011 (NSC837082), adavosertib (NSC754352), prexasertib (NSC758257), carboplatin (NSC241240) and oxaliplatin (NSC266046), were obtained from the National Cancer Institute (NCI) Developmental Therapeutics Program Chemical Repository (21). The FDA-approved anticancer drug set is available from the Developmental Therapeutics Program at https://dtp.cancer.gov/organization/dscb/obtaining/. […] The stock solutions were prepared in dimethyl sulfoxide (DMSO, Sigma-Aldrich, St. Louis, MO, cat. D2650), except for the platinum compounds which were prepared in saline (Quality Biological, Gaithersburg, MD, cat. 114-055-101), at 800-fold the tested concentration and stored at -70 degrees C prior to their use. All drugs and investigational agents were tested over a range starting from a high concentration at or near the clinical Cmax and decreasing in half-log increments. If the clinical Cmax for an agent had not been determined, the highest concentration tested was 10 microM, except for SN-38, which was tested at a high concentration of 1 microM.
Cell Culture. All cells were maintained in an incubator at 37 degrees C and 5% CO2 with 95% humidity. The PDC lines were cultured according to standard operating procedures established by the NCI PDMR (https://pdmr.cancer.gov). Table 3 of the manuscript, lists the cell lines along with the number of the three cell types plated to form the mct-spheroids and media for tumor cell growth. After thawing, all PDC lines, except 997537-175-T-J1-PDC and 415267-285-R-J2-PDC, were cultured in Matrigel-coated flasks prepared with a working solution of 1X Ham's F-12 nutrient mix, without supplementation (Thermo Fisher Scientific, cat. 11765054), 100 U/mL penicillin-streptomycin (Thermo Fisher Scientific, cat. 15140122), and 2.5% Matrigel (Corning Inc., Corning, NY, cat. 354248) for the first three passages. The two PDC lines 997537-175-T-J1-PDC and 415267-285-R-J2-PDC were cultured on uncoated flasks. The 857933-349-R-J2-PDC line was cultured in 6C/Colon 1B media containing advanced DMEM/F-12 (Thermo Fisher Scientific, cat. 12634028), 10 mM HEPES (Thermo Fisher Scientific, cat. 15630080), 1X GlutaMAX supplement (Thermo Fisher Scientific, cat. 35050061), 0.1 mg/mL primocin (InvivoGen, San Diego, CA, cat. ant-pm-2), 10% defined fetal bovine serum, heat inactivated (HyClone Laboratories Inc., Logan, UT, cat. SH30070.03HI), 50% L-WRN conditioned media (ATCC, cat. CRL-3276), 1.25 mM N-Acetyl-L-cysteine (Sigma-Aldrich, cat. A9165), 10 mM nicotinamide (Sigma-Aldrich, cat. N0636), 1X B-27 supplement (Thermo Fisher Scientific, cat. 17504044), 1X N-2 supplement (Thermo Fisher Scientific, cat. […]

[1] = second compound 0.0316 µM, first compound 0.0316 µM
[2] = second compound 0.0316 µM, first compound 0.1 µM
[3] = second compound 0.0316 µM, first compound 0.316 µM
[4] = second compound 0.0316 µM, first compound 1 µM
[5] = second compound 0.0316 µM, first compound 3.16 µM
[6] = second compound 0.0316 µM, first compound 10 µM
[7] = second compound 0.1 µM, first compound 0.0316 µM
[8] = second compound 0.1 µM, first compound 0.1 µM
[9] = second compound 0.1 µM, first compound 0.316 µM
[10] = second compound 0.1 µM, first compound 1 µM
[11] = second compound 0.1 µM, first compound 3.16 µM
[12] = second compound 0.1 µM, first compound 10 µM
[13] = second compound 0.316 µM, first compound 0.0316 µM
[14] = second compound 0.316 µM, first compound 0.1 µM
[15] = second compound 0.316 µM, first compound 0.316 µM
[16] = second compound 0.316 µM, first compound 1 µM
[17] = second compound 0.316 µM, first compound 3.16 µM
[18] = second compound 0.316 µM, first compound 10 µM
[19] = second compound 1 µM, first compound 0.0316 µM
[20] = second compound 1 µM, first compound 0.1 µM
[21] = second compound 1 µM, first compound 0.316 µM
[22] = second compound 1 µM, first compound 1 µM
[23] = second compound 1 µM, first compound 3.16 µM
[24] = second compound 1 µM, first compound 10 µM
[25] = second compound 3.16 µM, first compound 0.0316 µM
[26] = second compound 3.16 µM, first compound 0.1 µM
[27] = second compound 3.16 µM, first compound 0.316 µM
[28] = second compound 3.16 µM, first compound 1 µM
[29] = second compound 3.16 µM, first compound 3.16 µM
[30] = second compound 3.16 µM, first compound 10 µM
[31] = second compound 10 µM, first compound 0.0316 µM
[32] = second compound 10 µM, first compound 0.1 µM
[33] = second compound 10 µM, first compound 0.316 µM
[34] = second compound 10 µM, first compound 1 µM
[35] = second compound 10 µM, first compound 3.16 µM
[36] = second compound 10 µM, first compound 10 µM
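Note: spheroids exposed to drugs for one week before readout.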
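Throughout, for viability, T/C: percent viability relative to DMSO vehicle control wells set as 100%.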

C=CC(=O)N1CCN(c2nc(=O)n(-c3c(C)ccnc3C(C)C)c3nc(-c4c(O)cccc4F)c(F)cc23)C(C)C1 (centres undefined) + COC1C(OC(N)=O)C(O)C(Oc2ccc3c(O)c(NC(=O)c4ccc(O)c(CC=C(C)C)c4)c(=O)oc3c2C)OC1(C)C
inactive: viability, T/C [1] 83.3% | viability, T/C [2] 95.4% | viability, T/C [3] 76.5% | viability, T/C [4] 86.8% | viability, T/C [5] 64.2% | viability, T/C [6] 52.5% | viability, T/C [7] 92.6% | viability, T/C [8] 91.6% | viability, T/C [9] 85.1% | viability, T/C [10] 80.8% | viability, T/C [11] 80.1% | viability, T/C [12] 65.6% | viability, T/C [13] 101% | viability, T/C [14] 96.2% | viability, T/C [15] 87.3% | viability, T/C [16] 85.8% | viability, T/C [17] 68.5% | viability, T/C [18] 53.6% | viability, T/C [19] 81.3% | viability, T/C [20] 87.9% | viability, T/C [21] 77.1% | viability, T/C [22] 80.9% | viability, T/C [23] 77.2% | viability, T/C [24] 59.4% | viability, T/C [25] 74.1% | viability, T/C [26] 87.7% | viability, T/C [27] 77.4% | viability, T/C [28] 75.7% | viability, T/C [29] 74.5% | viability, T/C [30] 56.5% | viability, T/C [31] 77.4% | viability, T/C [32] 96% | viability, T/C [33] 103% | viability, T/C [34] 73.6% | viability, T/C [35] 76.1% | viability, T/C [36] 45.1%
> 10 µM: IC50 (second compound 0.0316 µM) | IC50 (second compound 0.1 µM) | IC50 (second compound 0.316 µM) | IC50 (second compound 1 µM) | IC50 (second compound 3.16 µM)
8.27 µM: IC50 (second compound 10 µM)

CC(C)n1c(=O)n(C)c2cnc3cc(F)c(-c4ccc(OCCCN5CCCCC5)nc4)cc3c21 + COC1C(OC(N)=O)C(O)C(Oc2ccc3c(O)c(NC(=O)c4ccc(O)c(CC=C(C)C)c4)c(=O)oc3c2C)OC1(C)C
inactive: viability, T/C [1] 87.3% | viability, T/C [2] 131% | viability, T/C [3] 131% | viability, T/C [4] 94.1% | viability, T/C [5] 87.2% | viability, T/C [6] 88.7% | viability, T/C [7] 98.7% | viability, T/C [8] 89.8% | viability, T/C [9] 110% | viability, T/C [10] 107% | viability, T/C [11] 90.3% | viability, T/C [12] 93.5% | viability, T/C [13] 101% | viability, T/C [14] 104% | viability, T/C [15] 108% | viability, T/C [16] 90.2% | viability, T/C [17] 86.6% | viability, T/C [18] 89% | viability, T/C [19] 119% | viability, T/C [20] 104% | viability, T/C [21] 104% | viability, T/C [22] 119% | viability, T/C [23] 81.9% | viability, T/C [24] 90.2% | viability, T/C [25] 87.4% | viability, T/C [26] 107% | viability, T/C [27] 101% | viability, T/C [28] 109% | viability, T/C [29] 88.2% | viability, T/C [30] 105% | viability, T/C [31] 114% | viability, T/C [32] 104% | viability, T/C [33] 114% | viability, T/C [34] 100% | viability, T/C [35] 89.5% | viability, T/C [36] 78.5%
> 10 µM: IC50 (second compound 0.0316 µM) | IC50 (second compound 0.1 µM) | IC50 (second compound 0.316 µM) | IC50 (second compound 1 µM) | IC50 (second compound 3.16 µM) | IC50 (second compound 10 µM)
